Reference: paper PMC7561186, “Rational design of balanced dual-targeting antibiotics with limited resistance” (PLoS Biology, 2020)
“And” between values parts separate entries of the source, which are not always exact repeats. Equal entries are not always repeated. Where two headings read alike, the source gives them in different places.

Columns and labels:
Acinetobacter baumannii = test: MIC, broth microdilution (CLSI); assay type: cell-based
Method: (§1) MICs were determined using a standard serial broth microdilution technique according to the CLSI guidelines. Briefly, bacterial strains were inoculated onto MHBII agar plates and were grown overnight at 37 °C. Next, 3 individual colonies from each strain were inoculated into 1 mL MHBII medium and propagated at 37 °C, 250 rpm overnight. In the cases of Enterococcus and Streptococcus sp., cells were plated to BHI agar plates, and BHI broth was used to determine MICs. […] Following dilutions, each well was seeded with 5×10^4 bacterial cells. All measurements were performed in 3 parallel replicates and to avoid possible edge effects in microwell plates, side rows (A and H) were filled with sterile medium. Following inoculations, plates were covered with lids and wrapped in polyethylene plastic bags to minimize evaporation but allow for O2 transfer. Plates were incubated at 37 °C under continuous shaking at 150 rpm for 18 hours. After incubation, OD600 of each well was measured using a BioTek Synergy 2 microplate reader.

Clostridium difficile = test: MIC, broth microdilution (CLSI); assay type: cell-based
Method: as §1

Enterococcus faecalis = test: MIC, broth microdilution (CLSI); assay type: cell-based; conditions: Enterococcus faecalis ATCC 29212
Method: as §1

Enterococcus faecium = test: MIC, broth microdilution (CLSI); assay type: cell-based
Method: as §1

Escherichia coli = test: MIC, broth microdilution (CLSI); assay type: cell-based; conditions: Escherichia coli ATCC 25922
Method: as §1

Haemophilus influenzae = test: MIC, broth microdilution (CLSI); assay type: cell-based
Method: as §1

Helicobacter pylori = test: MIC, broth microdilution (CLSI); assay type: cell-based; conditions: Helicobacter pylori ATCC 43504
Method: as §1

Klebsiella pneumoniae = test: MIC, broth microdilution (CLSI); assay type: cell-based; conditions: Klebsiella pneumoniae ATCC 10031
Method: as §1

Listeria monocytogenes = test: MIC, broth microdilution (CLSI); assay type: cell-based; conditions: Listeria monocytogenes ATCC 19111
Method: as §1

Neisseria gonorrhoeae = test: MIC, broth microdilution (CLSI); assay type: cell-based
Method: as §1

Pseudomonas aeruginosa = test: MIC, broth microdilution (CLSI); assay type: cell-based
Method: as §1

Shigella flexneri = test: MIC, broth microdilution (CLSI); assay type: cell-based
Method: as §1

Staphylococcus aureus = test: MIC, broth microdilution (CLSI); assay type: cell-based
Method: as §1

Streptococcus pneumoniae = test: MIC, broth microdilution (CLSI); assay type: cell-based
Method: as §1

Streptococcus pyogenes = test: MIC, broth microdilution (CLSI); assay type: cell-based
Method: as §1

S. aureus = test: pH-dependent MIC determination; assay type: cell-based; conditions: Staphylococcus aureus
Method: as §1

[1] = tested on: S. aureus VISA ATCC 700699 GyrB / ParE mutants; test: MIC of spontaneous resistant mutants (single-step and second-step); assay type: cell-based; conditions: for MIC: Staphylococcus aureus
Method: as §1

[2] = Pharmacokinetics measurement in skin tissue; assay type: in vivo, mice
Method: Pharmacokinetics measurement of ULD1 and ULD2 in skin tissue was conducted parallelly with the mice dermal infection study. In all cases, skin tissue samples were collected at the termination and homogenized following the same method as homogenate preparation for bacterial enumeration. Before measurement, protein precipitation was performed by treating the samples with acetonitrile. Analytics were the performed by liquid chromatography coupled mass spectrometry (LC/MS/MS) on an AB SCIEX QTRAP mass spectrometer in electrospray, positive ions ionization mode, and with Multiple Reaction Monitoring scan mode. Samples were analyzed on a Phenomenex Luna 5u Phenyl-Hexyl 50 × 2.0 mm HPLC column in a mobile phase of A: acetonitrile/formic acid = 100/0.2 (v/v), and mobile phase of B: water / formic acid = 100/0.2 (v/v). The column’s temperature was set to 30 °C, the injection volumes were 10 μL, and measurement time was 5 minutes in all cases. Oxybutynin (0.01 ng/μL in acetonitrile) was used as an internal standard for the measurement. Finally, the concentration of the drug in tissue samples was calculated from the peak area ratio.

HepG2 cells = conditions: LDH assay
Method: (§2) Cytotoxicity of compounds on HepG2 and MCF-7 mammalian cell lines was determined by using a standard LDH assay. Briefly, HepG2 and MCF-7 cells were cultured in Eagle’s MEM medium (from Gibco) supplemented with 2 mM L-glutamine (Sigma), 100 U/mL penicillin (Sigma), and 100 μg/mL streptomycin (Sigma), and 10% FBS (Gibco) at 37 °C and under 5% CO2. Next, LDH assays were performed according to manufacturer instructions (Thermo Fisher Scientific, Massachusetts, USA). By using a CyQUANT LDH Cytotoxicity Assay Kit. Firstly, the cells were seeded in 96-well microtiter plates at 10^5 cells/mL (100 μL/well) and allowed to attach overnight. […] Lysis buffer (10 μL, Thermo Fisher Scientific) was then added to the maximal LDH activity control wells and incubated additional 45 minutes. The cell culture supernatant (50 μL) was then transferred to a new 96-well plate and mixed with 50 μL of the reaction mixture. After 30 minutes on room temperature, reactions were stopped with 50 μL of the Stop solution. Absorbance (490 nm and 680 nm) was measured with the automatic microplate reader Synergy 4 Hybrid Microplate Reader (BioTek, VT, USA). All experiments were performed in triplicates and repeated 3 times. Statistical significance (P < 0.05) was calculated with 2-tailed Welch’s t-test between treated groups and DMSO. The percentage of cytotoxicity was determined according to the following equation: %Cytotoxicity=(CompoundtreatedLDHactivity-SpontaneousLDHactivity/MaximumLDHactivity-SpontaneousLDHactivity)*100

in vitro = conditions: human
Method: as §2

## Cc1[nH]c(C(=O)Nc2nc3c(OCc4ccccc4)cc(C(=O)O)cc3s2)c(Cl)c1Cl [ULD2]
Acinetobacter baumannii; ATCC19606, Acinetobacter baumannii ATCC 19606
  MIC: 0.5 µg/mL
Acinetobacter baumannii; Acinetobacter baumannii ATCC 17978
  MIC: 2 µg/mL
Acinetobacter baumannii; Acinetobacter baumannii ATCC 19606
  MIC: 0.5 µg/mL
Clostridium difficile; Clostridioides difficile, BAA1875
  MIC: ≤ 0.0312 µg/mL
Clostridium difficile; Clostridium difficile BAA-1875
  MIC: < 0.0312 µg/mL
Enterococcus faecalis
  MIC: < 0.0312 µg/mL
Enterococcus faecium; Enterococcus faecium ATCC 19434
  MIC: 0.5 µg/mL
Enterococcus faecium; Enterococcus faecium ATCC 700221, VRE (VanA+)
  MIC: 0.0625 µg/mL
Enterococcus faecium; Enterococcus faecium CCUG 56858, VRE (VanB+)
  MIC: 0.25 µg/mL
Escherichia coli
  MIC: 16 µg/mL
Haemophilus influenzae; ATCC49247, Haemophilus influenzae ATCC 49247
  MIC: 0.125 µg/mL
Haemophilus influenzae; Haemophilus influenzae ATCC 35056
  MIC: 1 µg/mL
Haemophilus influenzae; Haemophilus influenzae ATCC 49247
  MIC: 0.125 µg/mL
Helicobacter pylori
  MIC: 4 µg/mL
Klebsiella pneumoniae; ATCC10031
  MIC: 4 µg/mL
Klebsiella pneumoniae
  MIC: 4 µg/mL
Listeria monocytogenes; ATCC19111
  MIC: 0.125 µg/mL
Listeria monocytogenes
  MIC: 0.125 µg/mL
Neisseria gonorrhoeae; CCUG57598, Neisseria gonorrhoeae CCUG 57598
  MIC: ≤ 0.0312 µg/mL
Neisseria gonorrhoeae; Neisseria gonorrhoeae ATCC 700825
  MIC: < 0.0312 µg/mL
Neisseria gonorrhoeae; Neisseria gonorrhoeae CCUG 57598
  MIC: < 0.0312 µg/mL
Pseudomonas aeruginosa; ATCC27853, Pseudomonas aeruginosa ATCC 27853
  MIC: 2 µg/mL
Pseudomonas aeruginosa; Pseudomonas aeruginosa ATCC 27853
  MIC: 2 µg/mL
Pseudomonas aeruginosa; Pseudomonas aeruginosa B3-1811, Ciprofloxacin-R, Cephalosporin-R
  MIC: 16 µg/mL
Shigella flexneri; Shigella flexneri 668
  MIC: 16 µg/mL
Shigella flexneri; Shigella flexneri HNCMB 20018
  MIC: 8 µg/mL
Staphylococcus aureus; Staphylococcus aureus (strain not given), MRSA (SCCmec type IV), Oxacillin-R, VSSA, Cephalosporin-R, Erythromycin-R
  MIC: 0.063 µg/mL
Staphylococcus aureus; Staphylococcus aureus ATCC 29213
  MIC: 0.5 µg/mL
Staphylococcus aureus; Staphylococcus aureus ATCC 33594, MSSA, VSSA
  MIC: 0.125 µg/mL
Staphylococcus aureus; Staphylococcus aureus ATCC 43300, MRSA
  MIC: 0.0625 µg/mL
Staphylococcus aureus; Staphylococcus aureus ATCC 700699 (Mu50, NRS1), MRSA, VISA
  MIC: < 0.0312 µg/mL
Staphylococcus aureus; Staphylococcus aureus CDC AR-BANK 0218, MRSA, VISA
  MIC: 0.125 µg/mL
Staphylococcus aureus; Staphylococcus aureus ECL 2963646, MRSA, VRSA
  MIC: < 0.0312 µg/mL
Staphylococcus aureus; Staphylococcus aureus NRS271, MRSA, Linezolid-R
  MIC: 0.25 µg/mL
Staphylococcus aureus; Staphylococcus aureus USA300, ATCC BAA-1717, MRSA
  MIC: 0.063 µg/mL
Staphylococcus aureus; Staphylococcus aureus USA400, BAA-1707, NRS123, MRSA
  MIC: 0.125 µg/mL
Staphylococcus aureus; Staphylococcus aureus, ATCC 700699 / MRSA / NRS 1 / VISA, S. aureus ATCC 700699 (Mu50, NRS1), MRSA, VISA
  MIC: ≤ 0.0312 µg/mL
Staphylococcus aureus; Staphylococcus aureus, S. aureus ECL 2963646, MRSA, VRSA
  MIC: ≤ 0.0312 µg/mL
Streptococcus pneumoniae; Streptococcus pneumoniae ATCC 49619
  MIC: 0.25 µg/mL
Streptococcus pneumoniae; Streptococcus pneumoniae ATCC 51916
  MIC: 0.25 µg/mL
Streptococcus pneumoniae; Streptococcus pneumoniae ATCC 700673
  MIC: 0.25 µg/mL
Streptococcus pyogenes; Streptococcus pyogenes ATCC 14289
  MIC: 0.25 µg/mL
Streptococcus pyogenes; Streptococcus pyogenes ATCC 19615
  MIC: 0.125 µg/mL
S. aureus; S. aureus ATCC 43300 (MRSA), pH 5.5
  MIC: 0.008 µg/mL
S. aureus; S. aureus ATCC 43300 (MRSA), pH 7.3
  MIC: 0.06 µg/mL
S. aureus; S. aureus ATCC 700699 (VISA), pH 5.5
  MIC: 0.0005 µg/mL
S. aureus; S. aureus ATCC 700699 (VISA), pH 7.3
  MIC: 0.02 µg/mL
[1]; VISA GyrB I175T
  MIC: 0.088 µg/mL
[1]; VISA GyrB R144G
  MIC: 0.058 µg/mL
[1]; VISA GyrB R144I
  MIC: 0.058 µg/mL
[1]; VISA wt, read-out: MIC
  MIC: 0.02 µg/mL
[1]; second-step mutant, selection ULD1 at 16× MIC, GyrB I175T, ParE A120D
  MIC: 0.25 µg/mL
[1]; second-step mutant, selection ULD1 at 16× MIC, GyrB I175T, ParE F95Y
  MIC: 0.25 µg/mL
[1]; second-step mutant, selection ULD1 at 16× MIC, GyrB I175T, ParE T166A
  MIC: 0.125 µg/mL
[1]; second-step mutant, selection ULD1 at 16× MIC, GyrB I175T, ParE T166I
  MIC: 0.25 µg/mL
[1]; second-step mutant, selection ULD1 at 16× MIC, GyrB R144I, ParE A120D
  MIC: 0.25 µg/mL
[1]; second-step mutant, selection ULD1 at 16× MIC, GyrB R144I, ParE F95Y
  MIC: 0.125 µg/mL
[1]; second-step mutant, selection ULD1 at 16× MIC, GyrB R144I, ParE R136G
  MIC: 0.25 µg/mL
[1]; second-step mutant, selection ULD1 at 16× MIC, GyrB R144I, ParE R136L
  MIC: 0.125 µg/mL
[1]; second-step mutant, selection ULD2 at 8× MIC, GyrB I175T, ParE A120D
  MIC: 1 µg/mL
[1]; second-step mutant, selection ULD2 at 12× MIC, GyrB R144I, ParE A120D
  MIC: 0.125 µg/mL
[1]; second-step mutant, selection ULD2 at 12× MIC, GyrB R144I, ParE F95Y
  MIC: 0.25 µg/mL
[1]; second-step mutant, selection ULD2 at 12× MIC, GyrB R144I, ParE R136G
  MIC: 0.25 µg/mL
[1]; {}
  concentration inhibiting all isolated double mutants and laboratory evolved strains: ≤ 1 µg/mL
  concentration inhibiting all isolated second-step resistant mutants: ≤ 1 µg/mL
[2]; 73 h, 3 days twice-a-day topical 20 μL ointment containing 2% drug
  Drug concentration in mouse skin tissue (individual mice): 4224 ng/mL and 6654 ng/mL and 10244 ng/mL
[2]; 73 h, 3 days twice-a-day topical 20 μL ointment containing 2% drug, n = 3
  Drug concentration in mouse skin tissue, Mean: 7041 ng/mL
[2]; topical treatment, mouse skin
  skin concentration as multiple of the MIC in wild-type S. aureus VISA: up to 300 times the MIC
HepG2 cells
  Max. % inhibition at 100 µM: Max. % inhibition at 100 µM: 1.96%
In vitro
  IC50: > 100 µM
